Publication PMC10443802, “Targeting a xenobiotic transporter to ameliorate vincristine-induced sensory neuropathy” (JCI Insight, 2023)
“And” between values parts separate entries of the source, which are not always exact repeats. Identical values can stand only once.

Assays:
THP1 = experiment: Cytotoxicity of vincristine with or without nilotinib, MTT assay, THP1; format: cell-based, human; conditions: individual replicates
mice = experiment: Open field locomotion, Basso Mouse Scale (BMS); format: in vivo; design: key: BMS score: higher = better hindlimb locomotion; normal = 9
Method: where the distance between two adjacent rungs is changeable (1-5 cm). The elevated ladder tests were initiated after mice had been acclimated to their surrounding for at least 4 h. The mice were placed at one end of the ladder and encouraged to move forward by a food reward at the other end of the ladder. If a […]
counted by an electrical counter. Experiments were repeated 3 times for each mouse, and an average of the three trials was used for analysis. Open-field locomotion was assessed with the Basso Mouse Scale (BMS) rating system (7). The open field was a round table that was 20.32 cm high and 1.524 m in diameter situated in a quiet testing room with normal lighting. The mice were acclimated to the testing table for 20 min daily for a week before drug administration. Two analysts blinded to the composition of the treatment groups simultaneously scored hindlimb locomotion for 4 min per mouse using a score sheet described previously (7). Parameters of interest included paw position (rotated in, rotated out, parallel placement), trunk stability, tail position, coordination, and plantar and dorsal support. Quantification was based on a scoring system where conditional variables are given a numerical representation in each category. A higher number correlates to better hindlimb locomotor function and ‘normal’ behavior scores a 9; conversely, a lower number represents abnormal locomotion. […]
by an automated ladder test. […]
using the mean Basso Mouse Scale for Locomotion (BMS) score. There were no pronounced differences […]
statistically significant.
(also on this page, place not known: Baseline Day 1 Day 2 Day 3 0 5 10 15 20 25 Number missed steps Wild-type Baseline Day 1 Day 2 Day 3 0 5 10 BMS Wild-type ns A B OATP1B2(-/-) OATP1B2(-/-) score of behavior. ns)

hOATP1A2 = hOATP1A2 (Homo sapiens, UniProt P46721); experiment: Substrate uptake in HEK293 cells overexpressing hOATP1A2; conditions: HEK293 OATP1A2
Sequence of hOATP1A2 (P46721 whole entry): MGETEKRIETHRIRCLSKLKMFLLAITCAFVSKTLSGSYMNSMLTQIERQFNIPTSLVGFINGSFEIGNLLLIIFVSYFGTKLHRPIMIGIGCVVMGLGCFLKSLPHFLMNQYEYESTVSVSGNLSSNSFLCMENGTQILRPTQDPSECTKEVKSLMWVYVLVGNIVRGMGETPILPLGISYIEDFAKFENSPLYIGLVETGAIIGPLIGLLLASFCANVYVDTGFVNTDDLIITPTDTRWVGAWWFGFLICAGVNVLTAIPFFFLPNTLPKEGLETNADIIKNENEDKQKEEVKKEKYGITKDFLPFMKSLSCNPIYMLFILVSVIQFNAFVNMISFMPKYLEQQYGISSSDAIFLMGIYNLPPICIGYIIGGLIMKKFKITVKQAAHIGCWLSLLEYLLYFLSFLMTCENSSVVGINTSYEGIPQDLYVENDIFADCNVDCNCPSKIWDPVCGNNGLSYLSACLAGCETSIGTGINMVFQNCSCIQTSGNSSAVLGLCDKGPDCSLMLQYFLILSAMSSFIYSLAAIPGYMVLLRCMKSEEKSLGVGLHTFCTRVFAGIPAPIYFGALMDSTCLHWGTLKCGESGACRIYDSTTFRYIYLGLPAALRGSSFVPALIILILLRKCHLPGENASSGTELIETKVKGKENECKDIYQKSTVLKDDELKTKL
From the text: transfected with transporters of interest, including hOAT1, hOAT3, hOAT4, hOATP1A2, hOATP3A1, hOATP4A1, hOATP5A1, hOATP1C1, hOATP1B1, hOATP1B3, hOATP2B1, hOCT1, hOCT2, hOCTN1, hOCTN2, hASBT, hNTCP, hNPT1, hMATE1, hOSTα/β, hPEPT1, hPEPT2, rOatp1a1, rOatp1a4, rOatp1a5, rOatp1b2, rNtcp, rAsbt, rOat1, and rOct1. Cells were transfected with expression plasmid or vector control lacking any insert using Lipofectin reagent (Invitrogen). Sixteen hours thereafter, cells were washed with transport media (OPTIMEM, Invitrogen) and treated with radiolabeled drug. At various time intervals, cells were washed three times with ice-cold PBS and then lysed with 1% sodium dodecyl sulfate. The cellular radioactivity was quantified by liquid scintillation counting as described above. Similar analyses were performed in HEK293 cells transfected with hOATP1A2, hOATP1C1, mMATE1, and hMATE1, with cells seeded in poly lysine pre-coated 12-well plates. For hOATP1A2 and hOATP1C1, transient transfections were performed with either an empty vector, OATP1A2, or OATP1C1 using Lipofectamine 2000 according to the manufacturers protocol (Invitrogen). At 48 h post transfection, […]
(§1) Samples were analyzed using real-time quantitative PCR and Taqman Probes (Applied Biosystems). The relative gene expression was determined using the ΔΔCt method, and normalized to the mouse or human housekeeping gene, GAPDH. […]

hOATP4A1 = hOATP4A1 (Homo sapiens, UniProt Q96BD0); experiment: Vincristine uptake screen, HeLa cells overexpressing hOATP4A1; format: in vitro ADME
Sequence of hOATP4A1 (Q96BD0 whole entry): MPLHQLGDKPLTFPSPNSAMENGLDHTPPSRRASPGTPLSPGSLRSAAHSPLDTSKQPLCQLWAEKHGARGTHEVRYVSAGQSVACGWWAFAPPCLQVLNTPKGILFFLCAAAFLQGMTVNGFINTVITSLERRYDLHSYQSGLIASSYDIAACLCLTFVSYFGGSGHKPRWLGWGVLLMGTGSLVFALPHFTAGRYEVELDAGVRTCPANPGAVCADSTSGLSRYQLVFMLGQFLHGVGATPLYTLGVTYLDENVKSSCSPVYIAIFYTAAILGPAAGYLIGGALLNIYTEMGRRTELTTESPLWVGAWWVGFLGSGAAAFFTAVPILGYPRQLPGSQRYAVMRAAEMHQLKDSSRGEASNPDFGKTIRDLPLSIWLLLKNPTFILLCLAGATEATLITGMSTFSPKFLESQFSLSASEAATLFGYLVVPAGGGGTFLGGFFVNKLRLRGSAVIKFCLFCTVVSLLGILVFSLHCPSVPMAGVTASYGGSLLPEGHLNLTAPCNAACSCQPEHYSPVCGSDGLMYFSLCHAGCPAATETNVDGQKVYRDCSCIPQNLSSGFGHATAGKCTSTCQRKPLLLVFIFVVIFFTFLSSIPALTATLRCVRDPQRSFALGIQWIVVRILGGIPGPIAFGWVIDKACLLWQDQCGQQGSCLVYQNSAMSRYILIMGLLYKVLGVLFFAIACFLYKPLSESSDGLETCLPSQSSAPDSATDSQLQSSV
Method: (§2) Relative uptake is expressed as percentage change compared with empty vector controls (n = 4–14 per group). […] Human OATP1B1 and OATP1B3 transporter–overexpressed cells were used as positive controls; empty vector controls were used as the negative control. […] Mechanical allodynia (C), thermal hyperalgesia (D), and sciatic nerve maximal action potential amplitudes (E) are expressed as percentage change relative to baseline values (n = 6–8 per group). Statistical analysis was performed using a 2-way ANOVA with Bonferroni’s post hoc test. **P < 0.01, ***P < 0.001, ****P < 0.0001, compared with baseline values. […] Data are shown as mean ± SEM. […]
(§3) transfected with transporters of interest, including hOAT1, hOAT3, hOAT4, hOATP1A2, hOATP3A1, hOATP4A1, hOATP5A1, hOATP1C1, hOATP1B1, hOATP1B3, hOATP2B1, hOCT1, hOCT2, hOCTN1, hOCTN2, hASBT, hNTCP, hNPT1, hMATE1, hOSTα/β, hPEPT1, hPEPT2, rOatp1a1, rOatp1a4, rOatp1a5, rOatp1b2, rNtcp, rAsbt, rOat1, and rOct1. Cells were transfected with expression plasmid or vector control lacking any insert using Lipofectin reagent (Invitrogen). Sixteen hours thereafter, cells were washed with transport media (OPTIMEM, Invitrogen) and treated with radiolabeled drug. […] The cellular radioactivity was quantified by liquid scintillation counting as described above. […]

rOATP1A5 = rOATP1A5 (Rattus norvegicus, UniProt O88397); experiment: Vincristine uptake screen, HeLa cells overexpressing rOATP1A5; format: in vitro ADME
Sequence of rOATP1A5 (O88397 whole entry): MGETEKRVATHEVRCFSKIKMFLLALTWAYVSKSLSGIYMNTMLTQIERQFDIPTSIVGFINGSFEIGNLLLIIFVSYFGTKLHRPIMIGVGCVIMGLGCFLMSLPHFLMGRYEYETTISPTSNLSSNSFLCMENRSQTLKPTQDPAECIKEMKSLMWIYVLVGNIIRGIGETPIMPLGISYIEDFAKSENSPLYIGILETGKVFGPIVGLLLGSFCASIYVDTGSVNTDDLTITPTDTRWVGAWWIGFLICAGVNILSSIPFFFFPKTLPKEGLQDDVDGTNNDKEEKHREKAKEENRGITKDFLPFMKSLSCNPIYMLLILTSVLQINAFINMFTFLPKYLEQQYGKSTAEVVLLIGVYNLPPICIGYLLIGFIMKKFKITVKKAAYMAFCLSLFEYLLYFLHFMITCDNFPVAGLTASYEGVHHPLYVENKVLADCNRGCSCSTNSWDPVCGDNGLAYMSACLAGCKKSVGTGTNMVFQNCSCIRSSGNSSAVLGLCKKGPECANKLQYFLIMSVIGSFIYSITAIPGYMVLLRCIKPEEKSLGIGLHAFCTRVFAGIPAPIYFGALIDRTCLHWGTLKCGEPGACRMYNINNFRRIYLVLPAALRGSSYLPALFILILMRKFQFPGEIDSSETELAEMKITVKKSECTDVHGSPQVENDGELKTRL
Method: as §2, §3

rOATP1A1 = rOATP1A1 (Rattus norvegicus, UniProt P46720); experiment: Vincristine uptake screen, HeLa cells overexpressing rOATP1A1; format: in vitro ADME
Sequence of rOATP1A1 (P46720 whole entry): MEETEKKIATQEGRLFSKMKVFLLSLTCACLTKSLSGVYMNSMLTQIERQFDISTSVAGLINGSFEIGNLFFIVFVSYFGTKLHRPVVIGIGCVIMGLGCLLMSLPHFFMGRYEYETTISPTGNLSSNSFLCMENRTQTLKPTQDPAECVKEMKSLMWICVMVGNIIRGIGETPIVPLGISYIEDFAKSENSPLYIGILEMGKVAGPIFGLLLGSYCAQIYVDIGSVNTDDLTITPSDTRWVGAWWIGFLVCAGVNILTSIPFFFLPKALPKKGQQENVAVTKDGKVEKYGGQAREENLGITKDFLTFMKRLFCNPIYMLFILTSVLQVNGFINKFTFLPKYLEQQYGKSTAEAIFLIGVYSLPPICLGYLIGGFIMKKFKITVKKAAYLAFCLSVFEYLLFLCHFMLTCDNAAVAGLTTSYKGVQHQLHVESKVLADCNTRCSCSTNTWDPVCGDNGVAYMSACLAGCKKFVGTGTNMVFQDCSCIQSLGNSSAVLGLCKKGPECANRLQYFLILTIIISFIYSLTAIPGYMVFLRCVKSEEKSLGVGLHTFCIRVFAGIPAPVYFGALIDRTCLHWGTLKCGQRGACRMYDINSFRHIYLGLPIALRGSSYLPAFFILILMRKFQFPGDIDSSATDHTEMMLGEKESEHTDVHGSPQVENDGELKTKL
Method: as §2
as §3, with “(Invitrogen).” for “(Invitrogen). Sixteen hours thereafter, cells were washed with transport media (OPTIMEM, Invitrogen) and treated with radiolabeled drug.”
as §1

For `CC[C@]1(O)C[C@H]2CN(CCc3c([nH]c4ccccc34)[C@@](C(=O)OC)(c3cc4c(cc3OC)N(C=O)[C@H]3[C@@](O)(C(=O)OC)[C@H](OC(C)=O)[C@]5(CC)C=CCN6CC[C@]43[C@@H]65)C2)C1` [Vincristine, vincristine], the IC50 (THP1; Homo sapiens, THP-1, THP1 cells, vincristine + 1μM Nilotinib) was 11 nM, the IC50 (THP1; Homo sapiens, THP-1, THP1 cells, vincristine alone) was 15.4 nM and the IC50 (THP1; THP1 cells, vincristine alone) was 14.4 nM (2×) and 15.4 nM and 15.1 nM and 14.6 nM and 10.5 nM and 10.2 nM and 16.9 nM. For the same compound, the BMS score (mice; OATP1B2(-/-) mice, Day 1) was 9, the BMS score (mice; OATP1B2(-/-) mice, Day 2) was 9 and the BMS score (mice; OATP1B2(-/-) mice, Day 3) was 9. For the same compound, the BMS score (mice; Wild-type mice, Day 1) was 9 and 8, the BMS score (mice; Wild-type mice, Day 2) was 9 and 8 and the BMS score (mice; Wild-type mice, Day 3) was 9. The “Basso Mouse Scale for Locomotion (BMS) score, average” value (mice; wild-type and OATP1B2(-/-) mice, single i.p. dose 1 mg/kg, up to 3 days) was 9, the “Contribution of transporter to cellular uptake of vincristine” value (hOATP1A2) was “do not appreciably contribute to the cellular uptake of vincristine” and the “Vincristine uptake (% of vector control)” value (hOATP4A1) was 134.00 % of vector control and 105.00 % of vector control and 130.00 % of vector control and 116.00 % of vector control and 108.00 % of vector control and 117.00 % of vector control and 144.00 % of vector control and 140.00 % of vector control. For the same compound, the “Vincristine uptake (% of vector control)” value (rOATP1A5) was 107.00 % of vector control and 77.00 % of vector control and 126.00 % of vector control and 95.00 % of vector control and 111.00 % of vector control and 145.00 % of vector control and 98.00 % of vector control and the “Vincristine uptake (% of vector control)” value (rOATP1A1) was 102.00 % of vector control and 84.00 % of vector control and 73.00 % of vector control and 95.00 % of vector control and 74.00 % of vector control and 58.00 % of vector control and 71.00 % of vector control and 62.00 % of vector control.
